# Assay results reported in patent US20190380964A1, “METHODS AND COMPOSITIONS FOR MAKING AND USING NANOTHERAPEUTIC DRUG DELIVERY VEHICLES” (GEORGE MASON UNIVERSITY, priority 2018, published 2019).
# Experiments:
# MDA-MB-231 cells [1] = details: concentration at which DXR liposomal carriers were introduced; read-out: EC-50 of DXR; cited from earlier work
# MDA-MB-231 cells [2] = assay: WST-1 proliferation / viability of MDA-MB-231 cells exposed to targeted DXR liposomes; format: cell-based; details: 8 or 24 hours exposure, evaluated over 3 days
# Procedure: In an alternate embodiment, MDA-MB-231 cells were grown in DMEM containing 10% FBS and 1× Penicillin-Streptomycin solution. The cells were cultured at 70% confluence and plated in a 96 well plate at a density of 5×10^4 cells/well. The cells were incubated undisturbed for two days prior to any experimentation. Liposomal suspensions were UV sterilized prior to introduction to cell cultures. On the second day, the liposomal carriers containing DXR were introduced to the cultures at the EC-50 of DXR (0.01 μM21). Proliferating cells were quantified and normalized by the control using WST-1 proliferation assay.
# Liposomes were incubated with DXR (17.2 mM) and DSPE-PEG-MAL (0.1 mol %) for 1 hour. The suspension was then purified using spin columns and incubated overnight with CD44 antibodies as described in the methods. Targeted liposomes were introduced to cultures of MDA-MB-231 cells and allowed to interact for 8 hours or 24 hours prior to being washed. […] Viability was analyzed over 72 hours using WST-1 as an indicator of proliferation and normalized to a media only control (e.g., as is illustrated in FIG. 8D).
compound,measurement,setting,value
"COc1cccc2c1C(=O)c1c(O)c3c(c(O)c1C2=O)C[C@@](O)(C(=O)CO)C[C@@H]3O[C@H]1C[C@H](N)[C@H](O)[C@H](C)O1 [DXR, doxorubicin]",EC50,MDA-MB-231 cells [1],0.01 µM
same,"cancer cell viability (result in words, FIG. 8D)",MDA-MB-231 cells [2],demonstrated efficacy in reducing cancer cell viability
